Experimental data from patent US20230285568A1, “ENGINEERING DIVERSE ANTIGEN-PRESENTING CELLS TO CONTROL ANTIGEN-SPECIFIC RESPONSES” (University of Maryland, Baltimore, priority 2020, published 2023).

Test system: OVA-specific CD4+ T (OT-II) cells
Assay: BMDC/B cell co-culture with OT-II cells, CFSE dilution and CD25 expression
Type: cell-based, mouse
Conditions: BMDCs and B cells, 3-day co-culture
Experimental: T cell proliferation studies assays were carried out as described. The assay was carried out in T cell media. BMDCs (2×10^4/well) or B cells (2×10^4/well) were seeded into 96-well round-bottom cell culture plates and incubated with LAg-nano or PAg-nano at various particle concentrations and Ag loadings for 3 hours. Following incubation, all wells were washed to remove excess particles that had not been internalized by cells. Cells were co-cultured with 2×10^4/well of each OTI (CD8) and OTII (CD4) T cells). Groups receiving antigen in lieu of LAg-nano or PAg-nano received soluble OVA323-339 or SIINFEKL (SEQ ID NO:1; 100 ng/mL) at this time. After 3 days of co-culture, the T cells were collected, stained for viability, CD4, and CD8 and analyzed using flow cytometry. The extent of T cell proliferation was analyzed by CFSE dilution using flow cytometry. Ag processing kinetics in B cells was determined by loading with long GP100, KVPRNQDWL (SEQ ID NO:4; short GP100), or lipid-long GP100, […] (lipid-GP100; SEQ ID NO:3). […]
BMDCs and B cells loaded with unmodified ovalbumin (OVA) MHC II-restricted antigen (OVA323-339) or lipo-OVA323-339 were co-cultured with OVA-specific CD4^+ T (OT-II) cells for 3 days. CD25+ expression was detected and the proliferation and division indices were calculated. […] FIGS. 11E through 11H show quantitation of the proliferation and division indices of OT-II T cells. […]

Lipo-OVA323-339: DSPE-PEG2000 lipid conjugated to OVA323-339 (ISQAVHAAHAEINEAGR; SEQ ID NO:2)
APC internalization and MHC II-restricted presentation to OTII CD4+ T cells: enables APC internalization and promotes MHC II-restricted presentation
